Assay results reported in PubChem BioAssay (NCI).
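Interpolation was linear, between the two tested concentrations surrounding the appropriate level; five concentrations were tested over 48 hours in 96-well plates. TGI marks complete inhibition of growth.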

Legend:
Test in all cases: growth of human tumour cells (NCI), 48 h
SNB-78 CNS = tested on: SNB-78 CNS
XF 498 CNS = tested on: XF 498 CNS
KM20L2 colon = tested on: KM20L2 colon
DMS 273 small cell lung = tested on: DMS 273 small cell lung
HOP-18 NSCLC = tested on: HOP-18 NSCLC

Measured: TGI

O=S(OC12CC3CC(CC(C3)C1)C2)c1cc(Cl)cc(Cl)c1OCc1ccccc1 (stereo unspecified)
> 100 µM: SNB-78 CNS | XF 498 CNS

O=[N+]([O-])c1ccccc1S(=O)(=O)c1ccccc1
not listed: SNB-78 CNS
> 100 µM: all other assays above
